The values below come from patent US20240270748A1 (Merck Patent GmbH, priority 2021, published 2024).

The subject of test [1] is YAP-TEAD interaction. In words: SK-HEP-1 reporter assay (8xTEAD responsive elements driving NanoLuc luciferase). Format: cell-based. The settings on record: Homo sapiens, SK-HEP1, SK-HEP-1 reporter assay. Put shortly: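 SK-HEP-1 cells stably carrying 8×TEAD-driven NanoLuc treated in duplicate, 10-point dose from 30 μM final, 0.3% DMSO, 24 h at 37° C. Luminescence after NanoGlo lysis/substrate addition; IC50 calculated from dose response.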
(In general: In a reporter assay the amount or activity of a reporter protein is the signal.)

Test [2] has as its system NCI-H226 cells. The test is described as follows: Viability assay in NCI-H226 (Yap-dependent) cells, CyQuant. Format: cell-based, human. The settings on record: Homo sapiens, NCI-H226, 96 h, class symbols. The gist of the method: (§1)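 Seeded cells were dosed 24 h later in duplicate (10-point, 1:3 dilutions, top 30 μM final, 0.3% DMSO) and incubated 96 h at 37 °C. Viability was read with CyQUANT DNA dye after 1 h, fluorescence bottom read. NCI-H226 in RPMI 1640 medium; SW620 YAP/TAZ CRISPR knockout in DMEM/F-12 medium.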

Test [3] has as its system SW620 Yap KO cells. In words: Viability assay in SW620 Yap KO (Yap independent) cells, CyQuant. The format is cell-based. Conditions: Homo sapiens, SW-620, 96 h. Put shortly:
as §1

[4] abbreviates: n.d. = value not detectable below threshold given in parentheses, ND = not determinable within the entire range.
Setting [5] is: n.d. = value not detectable below threshold given in parentheses.

One may read the IC50 as the midpoint of a concentration-inhibition curve.

Each structure is given as a SMILES string.

For `Cc1snc2c1c1cc(C(N)=O)ccc1n2-c1ccc(C(F)(F)F)cc1` [Example C120, 3-methyl-8-[4-(trifluoromethyl)phenyl]-8H-[1,2]thiazolo[3,4-b]indole-5-carboxamide], the IC50 in test [1] (class symbols) is 10 to 100 nM; in test [2], 1 to 100 nM; in test [3] (setting [4]), above 30000 nM.

With `Cc1snc2c1c1cc(C(=O)NCCn3ccnc3)ccc1n2-c1ccc(C(F)(F)F)cc1` [Example C121], the IC50 in test [1] (class symbols) was 10 to 100 nM; in test [2], 1 to 100 nM; in test [3] (setting [4]), above 30000 nM.

As for `C[C@@H](NC(=O)c1ccc2c(c1)c1cn(C)nc1n2-c1ccc(C(F)(F)F)cc1)c1ccncc1` [Example C122, 2-methyl-N-[(1R)-1-(pyridin-4-yl)ethyl]-8-[4-(trifluoromethyl)phenyl]-2H,8H-pyrazolo[3,4-b]indole-5-carboxamide], the values for the half-maximal inhibitory concentration (IC50) in test [1] (class symbols), in test [2] and in test [3] (setting [4]) were 10 to 100 nM, 100 to 1000 nM and above 30000 nM, respectively.

As for `CNC(=O)c1ccc2c(c1)c1cn(C)nc1n2C12CC(C(F)(F)F)(C1)C2` [Example C125, N,2-dimethyl-8-[3-(trifluoromethyl)bicyclo[1.1.1]pentan-1-yl]-2H,8H-pyrazolo[3,4-b]indole-5-carboxamide], the half-maximal inhibitory concentration (IC50) was 10 to 100 nM in test [1] (class symbols), 100 to 1000 nM in test [2] and above 3000 nM in test [3] (setting [4]).

With `Cn1cc2c3cc(C(=O)O)ccc3n(-c3ccc(C(F)(F)F)cn3)c2n1` [Example C126, 2-methyl-8-[5-(trifluoromethyl)pyridin-2-yl]-2H,8H-pyrazolo[3,4-b]indole-5-carboxylic acid], the IC50 in test [1] (class symbols) is 10 to 100 nM; in test [2] it was 100 to 1000 nM; in test [3] (setting [4]) it was above 3000 nM.

As to `Cc1ccc(-n2c3ccc(C(=O)N[C@H](C)CO)cc3c3cn(C)nc32)cc1` [Example C131, N-[(2R)-1-hydroxypropan-2-yl]-2-methyl-8-(4-methylphenyl)-2H,8H-pyrazolo[3,4-b]indole-5-carboxamide], the figures for the IC50 in test [1] (class symbols), in test [2] and in test [3] (setting [4]) were 100 to 10000 nM, 100 to 1000 nM and above 30000 nM, respectively.

As for `Cn1nc2c3cc(C(=O)NCc4ccccc4)ccc3n(-c3ccc(C(F)(F)F)cc3)c2n1` [Example C134, N-benzyl-2-methyl-4-[4-(trifluoromethyl)phenyl]-2H,4H-[1,2,3]triazolo[4,5-b]indole-7-carboxamide], the values for the IC50 in test [1] (class symbols), in test [2] and in test [3] (setting [4]) were 10 to 100 nM, 1 to 100 nM and above 30000 nM, respectively.

Regarding `CNC(=O)c1ccc2c(c1)c1cn(C)nc1n2-c1ccc(C(F)(F)F)cn1` [Example C147, N,2-dimethyl-8-[5-(trifluoromethyl)pyridin-2-yl]-2H,8H-pyrazolo[3,4-b]indole-5-carboxamide], the IC50 was 10 to 100 nM in test [1] (class symbols), 1 to 100 nM in test [2] and above 30000 nM in test [3] (setting [4]).

Regarding `C[C@H](CO)NC(=O)c1ccc2c(c1)c1cn(C)nc1n2-c1ccc(C(F)(F)F)cn1` [Example C148, N-[(2R)-1-hydroxypropan-2-yl]-2-methyl-8-[5-(trifluoromethyl)pyridin-2-yl]-2H,8H-pyrazolo[3,4-b]indole-5-carboxamide], the IC50 in test [1] (class symbols) is 10 to 100 nM; in test [2], 1 to 100 nM; in test [3] (setting [4]), above 30000 nM.

On to `Cn1cc2c3cc(C(=O)N=S(C)(C)=O)ccc3n(-c3ccc(C(F)(F)F)cn3)c2n1` [Example C149, N-[dimethyl(oxo)-λ^6-sulfanylidene]-2-methyl-8-[5-(trifluoromethyl)pyridin-2-yl]-2H,8H-pyrazolo[3,4-b]indole-5-carboxamide], for which the values for the IC50 in test [1] (setting [4]), in test [2] and in test [3] (setting [4]) were above 320 nM, 1 to 100 nM and above 30000 nM, respectively.

Take `Cn1cc2c3cc(C(=O)N[C@@H](CO)c4ccccn4)ccc3n(-c3ccc(C(F)(F)F)cn3)c2n1` [Example C150, N-[(1R)-2-hydroxy-1-(pyridin-2-yl)ethyl]-2-methyl-8-[5-(trifluoromethyl)pyridin-2-yl]-2H,8H-pyrazolo[3,4-b]indole-5-carboxamide]: the 50% inhibitory concentration (IC50) in test [1] (class symbols) was 10 to 100 nM; in test [2], 1 to 100 nM; in test [3] (class symbols), 10000 to 30000 nM.

In the case of `C[C@@H](CO)C(=O)Nc1ccc2c(c1)c1cn(C)nc1n2-c1ccc(C(F)(F)F)cc1` [Example C153, (2S)-3-hydroxy-2-methyl-N-{2-methyl-8-[4-(trifluoromethyl)phenyl]-2H,8H-pyrazolo[3,4-b]indol-5-yl}propanamide], the figures for the IC50 in test [1] (class symbols), in test [2] and in test [3] (setting [4]) were 10 to 100 nM, 1 to 100 nM and above 30000 nM, respectively.

In the case of `CON(C)C(=O)c1ccc2c(c1)c1cn(C)nc1n2-c1ccc(C(F)(F)F)cc1` [Example C156, N-methoxy-N,2-dimethyl-8-[4-(trifluoromethyl)phenyl]-2H,8H-pyrazolo[3,4-b]indole-5-carboxamide], the IC50 in test [1] (class symbols) was 10 to 100 nM; in test [2], 1 to 100 nM; in test [3] (setting [4]), above 30000 nM.

Turning to `Cn1nc2c3cc(C(=O)NC[C@H](O)C(F)(F)F)ccc3n(-c3ccc(C(F)(F)F)cc3)c2n1` [Example C159, 2-methyl-N-[(2S)-3,3,3-trifluoro-2-hydroxypropyl]-4-[4-(trifluoromethyl)phenyl]-2H,4H-[1,2,3]triazolo[4,5-b]indole-7-carboxamide], the figures for the 50% inhibitory concentration (IC50) in test [1] (class symbols), in test [2] and in test [3] (setting [4]) were 10 to 100 nM, 1 to 100 nM and above 3000 nM, respectively.

As for `Cn1nc2c3cc(C(=O)NC[C@@H](O)C(F)(F)F)ccc3n(-c3ccc(C(F)(F)F)cc3)c2n1` [Example C160, 2-methyl-N-[(2R)-3,3,3-trifluoro-2-hydroxypropyl]-4-[4-(trifluoromethyl)phenyl]-2H,4H-[1,2,3]triazolo[4,5-b]indole-7-carboxamide], the concentration for half-maximal inhibition (IC50) in test [1] (class symbols) is 10 to 100 nM; in test [2], 1 to 100 nM; in test [3] (setting [4]), above 30000 nM.

For the compound `Cn1cc2c3cc(C(=O)O)ccc3n(-c3ccc(C(F)(F)F)c(F)c3)c2n1` [Example C164, 8-[3-fluoro-4-(trifluoromethyl)phenyl]-2-methyl-2H,8H-pyrazolo[3,4-b]indole-5-carboxylic acid], the half-maximal inhibitory concentration (IC50) is 10 to 100 nM in test [1] (class symbols), 1 to 100 nM in test [2] and above 30000 nM in test [3] (setting [5]).

In the case of `CNC(=O)c1ccc2c(c1)c1cn(C)nc1n2-c1ccc(C(F)(F)F)c(F)c1` [Example C166, 8-[3-fluoro-4-(trifluoromethyl)phenyl]-N,2-dimethyl-2H,8H-pyrazolo[3,4-b]indole-5-carboxamide], the IC50 was 10 to 100 nM in test [1] (class symbols), 1 to 100 nM in test [2] and above 3200 nM in test [3] (setting [5]).

`C[C@H](CO)NC(=O)c1ccc2c(c1)c1cn(C)nc1n2-c1ccc(C(F)(F)F)c(F)c1` [Example C167, 8-[3-fluoro-4-(trifluoromethyl)phenyl]-N-[(2R)-1-hydroxypropan-2-yl]-2-methyl-2H,8H-pyrazolo[3,4-b]indole-5-carboxamide]: the figures for the 50% inhibitory concentration (IC50) in test [1] (class symbols), in test [2] and in test [3] (setting [5]) were 10 to 100 nM, 1 to 100 nM and above 30000 nM, respectively.

`Cn1cc2c3cc(C(=O)N=S(C)(C)=O)ccc3n(-c3ccc(C(F)(F)F)c(F)c3)c2n1` [Example C168, N-[dimethyl(oxo)-lambda6-sulfanylidene]-8-[3-fluoro-4-(trifluoromethyl)phenyl]-2-methyl-2H,8H-pyrazolo[3,4-b]indole-5-carboxamide]: the IC50 is 10 to 100 nM in test [1] (class symbols), 1 to 100 nM in test [2] and above 3200 nM in test [3] (setting [5]).

With `Cn1cc2c3cc(C(=O)N[C@@H](CO)c4ccccn4)ccc3n(-c3ccc(C(F)(F)F)c(F)c3)c2n1` [Example C169, 8-[3-fluoro-4-(trifluoromethyl)phenyl]-N-[(1R)-2-hydroxy-1-(pyridin-2-yl)ethyl]-2-methyl-2H,8H-pyrazolo[3,4-b]indole-5-carboxamide], the IC50 was 10 to 100 nM in test [1] (class symbols), 1 to 100 nM in test [2] and above 3200 nM in test [3] (setting [5]).

Consider `Cn1cnc2c1c1cc(C=O)ccc1n2-c1ccc(C(F)(F)F)cc1` [Example C174, 1-methyl-4-[4-(trifluoromethyl)phenyl]-1H,4H-imidazo[4,5-b]indole-7-carbaldehyde], for which the IC50 in test [1] (class symbols) is 10 to 100 nM; in test [2], 1 to 100 nM; in test [3] (setting [5]), above 30000 nM.

For the compound `C[C@@H](NC(=O)c1ccc2c(c1)c1nn(C)nc1n2-c1ccc(C(F)(F)F)cc1)c1ccccn1` [Example C176, 2-methyl-N-[(1R)-1-(pyridin-2-yl)ethyl]-4-[4-(trifluoromethyl)phenyl]-2H,4H-[1,2,3]triazolo[4,5-b]indole-7-carboxamide], the IC50 in test [1] (class symbols) was 10 to 100 nM; in test [2] it was 100 to 1000 nM; in test [3] (setting [5]), above 30000 nM.

On to `C[C@@H](NC(=O)c1ccc2c(c1)c1nn(C)nc1n2-c1ccc(C(F)(F)F)cc1)c1ccncc1` [Example C180, 2-methyl-N-[(1R)-1-(pyridin-4-yl)ethyl]-4-[4-(trifluoromethyl)phenyl]-2H,4H-[1,2,3]triazolo[4,5-b]indole-7-carboxamide], for which the IC50 in test [1] (class symbols) was 10 to 100 nM; in test [2] it was 1 to 100 nM; in test [3] (setting [5]), above 30000 nM.

For the compound `C[C@@H](NC(=O)c1ccc2c(c1)c1nn(C)nc1n2-c1ccc(C(F)(F)F)cc1)c1cccc(N)n1` [Example C181, N-[(1R)-1-(6-aminopyridin-2-yl)ethyl]-2-methyl-4-[4-(trifluoromethyl)phenyl]-2H,4H-[1,2,3]triazolo[4,5-b]indole-7-carboxamide], the IC50 is 10 to 100 nM in test [1] (class symbols), 1 to 100 nM in test [2] and above 3000 nM in test [3] (setting [5]).
